From patent US8580811B2 (Ligand Pharmaceuticals Incorporated, priority 2005, dated 2013) come the findings set out here.

The target in the first assay is T1, human AR (Homo sapiens, UniProt P10275).
T1 construct: expressed in transfected cells; host or cells: COS-1 cells
T1 sequence (P10275 1-920): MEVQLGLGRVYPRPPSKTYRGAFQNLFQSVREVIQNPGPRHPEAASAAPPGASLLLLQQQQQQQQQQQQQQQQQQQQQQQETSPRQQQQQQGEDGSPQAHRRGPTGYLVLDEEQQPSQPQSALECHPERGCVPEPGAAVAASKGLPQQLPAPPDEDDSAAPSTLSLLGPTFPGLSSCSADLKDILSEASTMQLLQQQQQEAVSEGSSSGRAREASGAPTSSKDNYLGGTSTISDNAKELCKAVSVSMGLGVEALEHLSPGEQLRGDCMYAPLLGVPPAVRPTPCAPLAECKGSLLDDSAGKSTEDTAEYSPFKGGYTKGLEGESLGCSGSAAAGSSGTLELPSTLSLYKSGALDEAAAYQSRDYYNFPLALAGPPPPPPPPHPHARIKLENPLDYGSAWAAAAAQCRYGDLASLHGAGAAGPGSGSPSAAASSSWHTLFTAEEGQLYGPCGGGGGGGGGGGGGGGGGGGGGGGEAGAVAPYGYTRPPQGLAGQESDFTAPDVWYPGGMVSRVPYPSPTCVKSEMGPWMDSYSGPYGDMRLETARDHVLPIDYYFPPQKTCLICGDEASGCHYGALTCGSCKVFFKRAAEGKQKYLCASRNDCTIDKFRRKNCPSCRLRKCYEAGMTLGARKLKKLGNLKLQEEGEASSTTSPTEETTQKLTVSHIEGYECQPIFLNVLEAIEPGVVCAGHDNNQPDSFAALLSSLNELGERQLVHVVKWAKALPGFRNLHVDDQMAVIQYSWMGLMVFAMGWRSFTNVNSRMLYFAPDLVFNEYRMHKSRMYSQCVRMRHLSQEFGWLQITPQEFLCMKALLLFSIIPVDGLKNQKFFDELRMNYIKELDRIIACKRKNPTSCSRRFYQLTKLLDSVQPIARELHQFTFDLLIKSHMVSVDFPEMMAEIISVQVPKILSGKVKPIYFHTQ
In words: IR Binding Assay: whole cell competitive binding of test compounds against 3H-DHT in COS-1 cells transfected with pRShAR.
Details: not given
The method, then: For the whole cell binding assay, COS-1 cells in 96-well microtiter plates including DMEM-10% FBS were transfected as described above with the following plasmid DNA: pRShAR (2 ng/well), pRS-β-Gal (50 ng/well) and pGEM (48 ng/well). Six hours after transfection, media was removed, the cells were washed with PBS and fresh media was added. The next day, the media was changed to DMEM-serum free to remove any endogenous ligand that might be complexed with the receptor in the cells.
After 24 hours in serum-free media, either a saturation analysis to determine the Kd for tritiated dihydrotestosterone (^3H-DHT) on human AR or a competitive binding assay to evaluate the ability of test compounds to compete with ^3H-DHT for AR was performed. […] For the competitive binding assay, media including 1 nM ^3H-DHT and test compounds in concentrations ranging from 10^−10 to 10^−6 M were added to the cells. Three replicates were used for each sample. After three hours at 37° C., an aliquot of the total binding media at each concentration of ^3H-DHT was removed to estimate the amount of free ^3H-DHT. The remaining media was removed, the cells were washed three times with PBS to remove unbound ligand, and cells were lysed with a Triton X-100-based buffer. The lysates were assayed for amount of bound ^3H-DHT and β-Gal activity using a scintillation counter or spectrophotometer, respectively.
For the saturation analyses, the difference between the total binding and the nonspecific binding, normalized by the β-Gal rate, was defined as specific binding. The specific binding was evaluated by Scatchard analysis to determine the Kd for ^3H-DHT. See e.g., D. Rodbard, “Mathematics and statistics of ligand assays: an illustrated guide” In: J. Langon and J. J. Clapp, eds., Ligand Assay, Masson Publishing U.S.A., Inc., New York, pp. 45-99, (1981), the disclosure of which is herein incorporated by reference. For the competition studies, the data was plotted as the amount of ^3H-DHT (% of control in the absence of test compound) remaining over the range of the dose-response curve for a given compound. […] The Ki values were determined by application of the Cheng-Prusoff equation to the IC50 values, where:
[formula] After correcting for non-specific binding, IC50 values were determined. […] The IC50 value was determined graphically from a log-logit plot of the data. The Ki values were determined by application of the Cheng-Prusoff equation to the IC50 values, the labeled ligand concentration and the Kd of the labeled ligand. see e.g., Cheng, Y. C. and Prusoff, W. H. Biochem. Pharmacol. 22:3099 (1973).
`CC1c2c(ccc3[nH]c(=O)cc(Cl)c23)N(CC(F)(F)F)C1c1cccc(Cl)c1` (racemic) [Compound 146, (±)-9-Chloro-2-(3-chlorophenyl)-1-methyl-3-(2,2,2-trifluoroethyl)-1,2,3,6-tetrahydro-pyrrolo[3,2-f]quinolin-7-one] yielded an inhibition constant (Ki) of more than 10 nM. In turn, `O=c1cc(Cl)c2c3c(ccc2[nH]1)N(CC(F)(F)F)C1CCCC31` (racemic) [Compound 126, (±)-9-Chloro-3-(2,2,2-trifluoro-ethyl)-1,2-trimethylene-1,2,3,6-tetrahydro-pyrrolo[3,2-f]-quinolin-7-one] registered a Ki of less than 5 nM. The compound `CC1c2c(ccc3[nH]c(=O)cc(Cl)c23)N(CCC(F)(F)F)C1c1ccccc1` (racemic) [Compound 169, (±)-9-Chloro-1-methyl-2-phenyl-3-(3,3,3-trifluoropropyl)-1,2,3,6-tetrahydro-pyrrolo[3,2-f]quinolin-7-one] had a Ki of less than 5 nM. Consider `CC(=O)OCCCn1c(C)c(C)c2c3c(C(F)(F)F)cc(=O)[nH]c3ccc21` [Compound 250, 3-(3-Acetoxypropyl)-1,2-dimethyl-9-trifluoromethyl-3,6-dihydro-pyrrolo[3,2-f]quinolin-7-one], for which the Ki is less than 5 nM. Consider `Cc1[nH]c2ccc3[nH]c(=O)cc(Cl)c3c2c1C` [Compound 105, 9-Chloro-1,2-dimethyl-3,6-dihydro-pyrrolo[3,2-f]quinolin-7-one], for which the Ki is less than 5 nM. Compound `Cc1c(-c2cccnc2)n(C[C@H](O)C(F)(F)F)c2ccc3[nH]c(=O)cc(Cl)c3c12` [Compound 274, (S)-9-Chloro-1-methyl-2-(3-pyridyl)-3-(3,3,3-trifluoro-2-hydroxy-propyl)-3,6-dihydro-pyrrolo[3,2-f]quinolin-7-one] registered a Ki of more than 10 nM.

`Cc1c(C)n(C[C@H](O)CO)c2ccc3[nH]c(=O)cc(Cl)c3c12` [Compound 291, (S)-9-Chloro-3-(2,3-dihydroxypropyl)-1,2-dimethyl-3,6-dihydro-pyrrolo[3,2-f]-quinolin-7-one]: the Ki was more than 10 nM. `CCC1C(C)c2c(ccc3[nH]c(=O)cc(Cl)c23)N1CC` (racemic) [Compound 166, (±)-9-Chloro-2,3-diethyl-1-methyl-1,2,3,6-tetrahydro-pyrrolo[3,2-f]quinolin-7-one] gave a Ki of more than 10 nM. In the case of `Cc1c(-c2ccc(F)cc2)[nH]c2ccc3[nH]c(=O)cc(Cl)c3c12` [Compound 116, 9-Chloro-2-(4-fluorophenyl)-1-methyl-3,6-dihydro-pyrrolo[3,2-f]quinolin-7-one], the Ki is less than 5 nM. `Cc1c(-c2cccs2)n(CC(F)(F)C(F)(F)F)c2ccc3[nH]c(=O)cc(Cl)c3c12` [Compound 259, 9-Chloro-1-methyl-3-(2,2,3,3,3-pentafluoropropyl)-2-thiophen-2-yl-3,6-dihydro-pyrrolo[3,2-f]quinolin-7-one] returned a Ki of more than 10 nM. Same read-out and setting: to `Cc1c(-c2ccc(F)cc2F)[nH]c2ccc3[nH]c(=O)cc(Cl)c3c12` [Compound 117, 9-Chloro-2-(2,4-difluorophenyl)-1-methyl-3,6-dihydro-pyrrolo[3,2-f]quinolin-7-one] belongs less than 5 nM. `Cc1c(-c2ccc(Cl)cc2)[nH]c2ccc3[nH]c(=O)cc(Cl)c3c12` [Compound 118, 9-Chloro-2-(4-chlorophenyl)-1-methyl-3,6-dihydro-pyrrolo[3,2-f]quinolin-7-one] registered a Ki of less than 5 nM. Still for that read-out and setting: to `CCc1c(C)c2c3c(Cl)cc(=O)[nH]c3ccc2n1CC(F)(F)C(F)(F)F` [Compound 223, 9-Chloro-2-ethyl-1-methyl-3-(2,2,3,3,3-pentafluoropropyl)-3,6-dihydro-pyrrolo[3,2-f]-quinolin-7-one] belongs less than 5 nM. On to `Cc1c(C(F)(F)F)n(CC(F)(F)F)c2ccc3[nH]c(=O)cc(C(F)(F)F)c3c12` [Compound 234, 1-Methyl-3-(2,2,2-trifluoro-ethyl)-2,9-bis-trifluoromethyl-3,6-dihydro-pyrrolo[3,2-f]-quinolin-7-one], for which the Ki was less than 5 nM.

For `Cc1c(-c2ccco2)n(CC(F)(F)C(F)(F)F)c2ccc3[nH]c(=O)cc(Cl)c3c12` [Compound 261, 9-Chloro-1-methyl-2-(2-furyl)-3-(2,2,3,3,3-pentafluoropropyl)-3,6-dihydro-pyrrolo[3,2-f]quinolin-7-one], the inhibitory constant (Ki) is less than 5 nM. With `Cc1c(C)n(CCCNCCO)c2ccc3[nH]c(=O)cc(C(F)(F)F)c3c12` [Compound 289, 1,2-Dimethyl-3-[3-(2-hydroxy-ethylamino)-propyl]-9-trifluoromethyl-3,6-dihydro-pyrrolo[3,2-f]quinolin-7-one], the Ki was more than 10 nM. On the same count and under the same terms, the value for `CCC1c2c(ccc3[nH]c(=O)cc(Cl)c23)N(CC(F)(F)F)C1c1cccs1` (racemic) [Compound 164, (±)-9-Chloro-1-ethyl-2-(thien-2-yl)-3-(2,2,2-trifluoroethyl)-1,2,3,6-tetrahydro-pyrrolo[3,2-f]-quinolin-7-one] was less than 5 nM; that for `O=c1cc(Cl)c2c(ccc3[nH]c4c(c32)CCCC4)[nH]1` [Compound 113, 9-Chloro-1,2-tetramethylene-3,6-dihydro-pyrrolo[3,2-f]quinolin-7-one] was more than 10 nM.

With `CCn1cc(C)c2c3c(Cl)cc(=O)[nH]c3ccc21` [Compound 193, 9-Chloro-3-ethyl-1-methyl-3,6-dihydro-pyrrolo[3,2-f]quinolin-7-one], the Ki lay in the range of 5 to 10 nM. In the case of `Cc1c(C)n(C[C@@H](O)CO)c2ccc3[nH]c(=O)cc(C(F)(F)F)c3c12` [Compound 296, (R)-3-(2,3-dihydroxypropyl)-1,2-dimethyl-9-trifluoromethyl-3,6-dihydro-pyrrolo[3,2-f]-quinolin-7-one], the Ki is more than 10 nM.

For the compound `CC1c2c(ccc3[nH]c(=O)cc(Cl)c23)N(CC(F)(F)C(F)(F)C(F)(F)F)C1C` (racemic) [Compound 168, (±)-9-Chloro-1,2-dimethyl-3-(2,2,3,3,4,4,4-heptafluorobutyl)-1,2,3,6-tetrahydro-pyrrolo[3,2-f]quinolin-7-one], the Ki is more than 10 nM. The same measure, in the same setting: the value for `Cc1c(C)n(CCOCCOCCO)c2ccc3[nH]c(=O)cc(C(F)(F)F)c3c12` [Compound 298, 3-{2-[2-(2-Hydroxy-ethoxy)-ethoxy]-ethyl}-1,2-dimethyl-9-trifluoromethyl-3,6-dihydro-pyrrolo[3,2-f]quinolin-7-one] was more than 10 nM.

The same assay, now with this note: competition with 1 nM 3H-DHT, transfected COS-1 cells, 3 h at 37° C., Cheng-Prusoff from IC50; read-out: Ki.
For the compound `Cc1ccc(-c2c(C)c3c4c(Cl)cc(=O)[nH]c4ccc3n2CC(F)(F)F)o1` [Compound 256, 9-Chloro-1-methyl-2-(5-methyl-2-furyl)-3-(2,2,2-trifluoroethyl)-3,6-dihydro-pyrrolo[3,2-f]-quinolin-7-one], the Ki was less than 5 nM. For the compound `Cc1c(-c2ccncc2)n(CC(F)(F)F)c2ccc3[nH]c(=O)cc(Cl)c3c12` [Compound 254, 9-Chloro-1-methyl-2-(4-pyridyl)-3-(2,2,2-trifluoroethyl)-3,6-dihydro-pyrrolo[3,2-f]-quinolin-7-one], the Ki was more than 10 nM.
